# Reference: publication PMC10610494, “Anticancer Peptides Derived from Aldolase A and Induced Tumor-Suppressing Cells Inhibit Pancreatic Ductal Adenocarcinoma Cells” (Pharmaceutics, 2023)
# Experiments:
# [1] = test system: PANC1 cells; assay: MTT-based viability assay; type: cell-based, human; conditions: for IC50: Homo sapiens
# Description: (§1) MTT-based assessment of metabolic activity involved seeding approximately 2000 cells into 96-well plates. These cells were subsequently incubated with treatment agents for two days. On day 4, the cells were subjected to staining with 0.5 mg/mL thiazolyl blue tetrazolium bromide (M5655, Sigma). The determination of metabolic activity was based on the measurement of optical density at 562 nm. For the evaluation of proliferation activity using the EdU assay, around 1000 cells were seeded into 96-well plates. A fluorescence-based cell proliferation kit (Click-iT™ EdU Alexa Fluor™ 488 Imaging Kit; Thermo Fisher, Waltham, MA, USA) was employed, following the manufacturer’s protocol. This kit facilitated the detection of EdU incorporation as an indicator of proliferating cells.
# [2] = test system: human PDAC tissue fragments; assay: Ex vivo PDAC tissue fragment assay; type: cell-based
# Excerpt: The utilization of human pancreatic cancer tissue was approved by the Indiana University Institutional Review Board (1911155674), and the tissue samples were sourced from the Indiana University Simon Comprehensive Cancer Center Tissue Procurement Core. A freshly procured pancreatic cancer tissue, weighing approximately 1 g, was manually sectioned into small fragments (ranging from 0.5 to 0.8 mm in length) using a scalpel. These fragments were subsequently cultured in DMEM supplemented with 10% FBS and antibiotics for one day. Following this initial incubation, the described conditioned medium (CM) was introduced and maintained for an additional four days, during which any alterations in fragment size were assessed.
# [3] = test system: PANC1 cells; assay: Transwell invasion assay; type: cell-based, human; conditions: 25 μg of P04
# Description: To assess the invasive potential of tumor cells, a 12-well plate and transwell chambers (353,182, Thermo Fisher) featuring 8-µm pore size were employed. The transwell chambers were pre-coated with 300 µL of Matrigel (100 µg/mL), followed by the addition of 500 µL of serum-free medium. Afterward, the chambers were rinsed three times with a serum-free medium. Subsequently, approximately 7 × 10^4 cells in 300 µL of serum-free DMEM were introduced into the upper chamber, while 800 µL of the conditioned medium (CM) was added to the lower chamber. Upon completion of the experiment, cells that had invaded the lower side of the membrane were fixed and stained using methanol and crystal violet. Utilizing an inverted optical microscope (100×), five randomly selected images were captured. From these images, the average count of stained cells, serving as an indicator of the invasion capacity, was determined.
# [4] = test system: Snail; assay: Western blot analysis; type: cell-based, human; conditions: 25 μg/mL P04
# Description: (§2) Cell lysis was achieved using RIPA lysis buffer (sc-24948, Santa Cruz Biotech, Dallas, TX, USA), supplemented with protease inhibitors (PIA32963, Thermo Fisher), and phosphatase inhibitors (2006643, Calbiochem, Billerica, MA, USA). Subsequently, proteins were separated using 10–15% SDS gels (Bio-Rad Laboratories, Hercules, CA, USA) and then transferred onto polyvinylidene difluoride membranes (IPVH00010, Millipore, Billerica, MA, USA). The membrane was first incubated with primary antibodies, followed by secondary antibodies (7074S/7076S, Cell Signaling, Danvers, MA, USA). Antibodies against ALDOA, Snail, p-Src, Src, cleaved caspase 3, caspase 3 (Cell Signaling), and K-Ras (Santa Cruz Biotech) were employed, with β-actin (Sigma) serving as a control. Protein levels were determined utilizing the Super-Signal West Femto Maximum Sensitivity Substrate (PI34096, Thermo Fisher), and signal intensities were quantified using a luminescent image analyzer (LAS-3000, Fuji Film, Tokyo, Japan).
# [5] = test system: ALDOA; assay: Western blot analysis; type: cell-based, human
# Description: as §2
# [6] = test system: K-Ras; assay: Western blot analysis; type: cell-based, human
# Description: as §2
# [7] = test system: cleaved caspase 3; assay: Western blot analysis; type: cell-based, human; conditions: 25 μg/mL P04
# Description: as §2
# [8] = test system: p-Src; assay: Western blot analysis; type: cell-based, human; conditions: 25 μg/mL P04
# Description: as §2
# [9] = test system: MSCs; assay: MTT-based viability of MSCs; type: cell-based, mice; conditions: P04; assay not specified, no data shown
# Description: Human pancreatic ductal adenocarcinoma (PDAC) cell lines including PANC1 (ATCC, Manassas, VA, USA), PANC198, and Pa03C (sourced from Indiana University Simon Comprehensive Cancer Center, Indianapolis, IN, USA) were cultured in DMEM (10-013-CV, Corning Inc., Corning, NY, USA). The breast cancer cell lines MDA-MB-231 and MDA-MB-436 (ATCC) were grown in RPMI-1640 medium (Gibco, Carlsbad, CA, USA). The culture media for all cell lines were supplemented with 10% fetal bovine serum and antibiotics (100 units/mL penicillin and 100 µg/mL streptomycin; Life Technologies, Grand Island, NY, USA). Jurkat T lymphocytes (ATCC) were cultured in RPMI-1640 medium (10-040-CV, Corning). Murine MSCs derived from the bone marrow of C57BL/6 mice were cultured in DMEM. All cell cultures were maintained at 37 °C with 5% CO2. The overexpression of ALDOA was accomplished by transfecting its plasmids (109,854; Addgene, Cambridge, MA, USA), while blank plasmids (FLAG-HA-pcDNA3.1; Addgene) were employed as controls.
# MTT-based assessment of metabolic activity involved seeding approximately 2000 cells into 96-well plates. These cells were subsequently incubated with treatment agents for two days. […] A fluorescence-based cell proliferation kit (Click-iT™ EdU Alexa Fluor™ 488 Imaging Kit; Thermo Fisher, Waltham, MA, USA) was employed, following the manufacturer’s protocol. […]
# [10] = test system: PA03C cells; assay: MTT-based viability assay; type: cell-based, human; conditions: 25 μg/mL peptide, incubated two days, vs control
# Description: as §1
# [11] = test system: PAN198 cells; assay: MTT-based viability assay; type: cell-based, human; conditions: 25 μg/mL peptide, incubated two days, vs control
# Description: as §1
# [12] = test system: PANC1 cells; assay: Wound-healing scratch assay (motility); type: cell-based, human; conditions: 25 μg/mL peptide, 0 h vs 24 h
# Description: To analyze the two-dimensional migratory behavior of PANC cells, a wound-healing scratch assay was employed to assess the change in the scratched area. Around 3 × 10^5 cells were seeded into 12-well plates on day 1. On day 2, a scratch was carefully created on the cell layer using the tip of a plastic pipette. The cells were then rinsed with DMEM to eliminate any detached cells. Images of the cell-free areas were captured at both 0 h and 24 h using a light microscope (40× magnification). The sizes of the cell-free zones were subsequently quantified using Image J (v1.5.4f).
# [13] = test system: PANC1 cells; assay: EdU proliferation assay; type: cell-based, human; conditions: 25 μg of P04
# Description: as §1
# [14] = PANC-1, chemotherapeutic agent alone
# [15] = PANC-1, chemotherapeutic agent together with 25 μg/mL P04
# [16] = following administration of rhALDOA
molecule,measurement,setting,value
"O=c1[nH]cc(F)c(=O)[nH]1 [5-Flu, 5-fluorouracil]",IC50,[1]; [14],3300 nM
same,IC50,[1]; [15],1600 nM
same,PDAC fragment size,"[2]; 10 μM 5-Flu alone, 96 h, n = 8",reduction
Nc1ccn([C@@H]2O[C@H](CO)[C@@H](O)C2(F)F)c(=O)n1 [gemcitabine],IC50,[1]; [14],1000 nM
same,IC50,[1]; [15],800 nM
"IGEHTPSALAIMENANVLAR [P04, anticancer peptide derived from aldolase A (ALDOA)]",transwell-based invasion of PANC1 cells,[3],discernible decrease
same,Snail level,[4]; PAN198 cells,downregulation
same,Snail level,[4]; PANC1 cells,downregulation
same,ALDOA level,"[5]; PANC1 cells, 25 μg/mL P04",decrease
same,K-Ras level,"[6]; PANC1 cells, 25 μg/mL P04",discernible reduction
same,cleaved caspase 3 level,[7]; PAN198 cells,increase
same,cleaved caspase 3 level,[7]; PANC1 cells,elevation
same,p-Src level,[8]; PAN198 cells,downregulation
same,p-Src level,[8]; PANC1 cells,downregulation
same,inhibitory effect on mesenchymal stem cells (MSC growth),[9],no inhibitory effect
same,MTT-based viability of PA03C cells,[10],reduction
same,MTT-based viability of PANC1 cells,"[1]; 25 μg/mL peptide, incubated two days, vs control",reduction
same,MTT-based viability of PAN198 cells,[11],reduction
same,PDAC fragment size,"[2]; 25 μg/mL P04, 96 h, n = 8, patient tissue ex vivo",notable reduction
same,scratch-based motility of PANC1 cells,[12],reduction
same,EdU-based proliferation of PANC1 cells,[13],discernible decrease
"rhALDOA: human recombinant ALDOA protein (MBS8248528, MyBioSource) (protein, UniProt P04075 2-364, looked up) Fructose-bisphosphate …: PYQYPALTPEQKKELSDIAHRIVAPGKGILAADESTGSIAKRLQSIGTENTEENRRFYRQLLLTADDRVNPCIGGVILFHETLYQKADDGRPFPQVIKSKGGVVGIKVDKGVVPLAGTNGETTTQGLDGLSERCAQYKKDGADFAKWRCVLKIGEHTPSALAIMENANVLARYASICQQNGIVPIVEPEILPDGDHDLKRCQYVTEKVLAAVYKALSDHHIYLEGTLLKPNMVTPGHACTQKFSHEEIAMATVTALRRTVPPAVTGITFLSGGQSEEEASINLNAINKCPLLKPWALTFSYGRALQASALKAWGGKKENLKAAQEEYVKRALANSLACQGKYTPSGQAGAAASESLFVSNHAY",ALDOA level,[5]; [16],discernible decreases
same,K-Ras level,[6]; [16],discernible decreases
same,MTT-based viability of PANC1 cells,[1]; 5 μg/mL recombinant ALDOA protein,notable reduction
